Measurements from patent publication US12336986B2, “Treatment and prevention of ocular neurodegenerative disorder” (The Jackson Laboratory, priority 2015, dated 2025).

What was measured:
[1] = test system: zebrafish; conditions: two-photon-laser axotomy; cited from earlier work
[2] = test system: sciatic nerve axons; conditions: blocking NAMPT; cited from earlier work
[3] = test system: D2 mice; conditions: topical administration; cited from earlier work
[4] = test system: ganglion cell layer cells (GCL cells); experiment: Whole retina explant culture (axotomy culture model), DAPI nuclei; format: cell-based, mouse
Text: Mice were euthanized, eyes enucleated and placed immediately into ice-cold HBSS. Retinas were dissected from the eyes in HBSS on ice, flat-mounted with the ganglion cell layer up on a cell culture insert (Millipore), and submerged in tissue culture media containing Neurobasal-A, 1% penicillin-streptomycin (10000 U/mL), 1% glutamine (100×), 1% N-2 (100×) and 1% B-27 (50×) (all ThermoFisher Scientific).
For drug treated retinas tissue culture media was made as above and supplemented with one of the following compounds (all Sigma unless otherwise): β-NAD, NAM (PanReac AppliChem), β-NMN. Retinas were incubated in 6-well plates at 37° C. and 4% CO2 for 5 days before being fixed in 4% PFA and stained with DAPI. (For untreated “Day 0” controls, retinas were dissected and placed straight into 4% PFA.) Retinas were imaged on a Zeiss AxioObserver.

[5] = PQQ tolerability in mice; format: in vivo, mouse
[6] = test system: dorsal root ganglion; conditions: U.S. Pat. No. 7,776,326; cited from earlier work
[7] = survey of 6000 patients on high doses; cited from earlier work
[8] = axotomized retinas in culture, 5 days

O=C(/C=C/c1cccnc1)NCCCCC1CCN(C(=O)c2ccccc2)CC1 [FK866]
axon degeneration [1]: potently delayed axon degeneration | axon degeneration following axonal injury [2]: potentially inhibits this axon degeneration

CC(C)OC(=O)CCC/C=C\C[C@@H]1[C@@H](CC[C@@H](O)CCc2ccccc2)[C@H](O)C[C@@H]1O [Latanoprost]
IOP [3]: lowers IOP | risk of developing neurodegeneration [3]: reduces the risk of developing neurodegeneration

O=C(O)c1cc(C(=O)O)c2c(n1)C(=O)C(=O)c1cc(C(=O)O)[nH]c1-2 [PQQ, pyrroloquinoline quinone]
nuclear diameter shrinkage (DAPI-labeled nuclei) ([4]; axotomized D2 retinas in culture, 5 days post-axotomy, NAM 100 mM and 500 mM): prevents | ganglion cell layer cell death / cell density [4, 8]: prevents | protective effect in retina tissue culture [4, 8]: protective in retina tissue culture | tolerated dose [5]: ≥ 2,000 mg/kg/day

CC12CC3CC(C)(C1)CC(N)(C3)C2 [memantine]
IOP [3]: lowers IOP | risk of developing neurodegeneration [3]: reduces the risk of developing neurodegeneration

O=C(O)c1cccnc1 [nicotinic acid]
axonal degeneration after axotomy [6]: did not work to diminish axonal degeneration | cases of jaundice reported [7]: 3

CC(C)(C)NC[C@H](O)COc1nsnc1N1CCOCC1 [timolol]
IOP [3]: lowers IOP | risk of developing neurodegeneration [3]: reduces the risk of developing neurodegeneration

NC(=O)c1ccc[n+]([C@@H]2O[C@H](COP(=O)([O-])O)[C@@H](O)[C@H]2O)c1 [β-NMN, nicotinamide mononucleotide]
protective effect in retina tissue culture [4, 8]: significant protective effects
